Type in all cases: cell-based, human
The test system of test [1] is MCF7 cells. Briefly: Cell viability assay (MTT assay). Particulars: for response of cells to drug (percent viability, MTT assay): MCF7 cells. On the procedure: (§1) MCF7 and MCF7/ADR cells were a kind gift from Dr. Ken Cowan (National Cancer Institute, Bethesda, Md.). MCF7, MCF7/ADR, MCF7/siMCJ-1B MCF7/siMCJ-3B, […], MD22, MES-SA and MES-Dx5 cells were maintained in RPMI-1640 (Life technologies, Inc., Gaithersburg, Md.) containing 5% FBS (Hyclone, Logan, Utah), Penicillin/streptomycin and 1-glutamine (Gibco). 293T cells were cultured in DMEM-F12 medium (Life technologies, Inc.) supplemented with 10% FBS (Hyclone, Logan, Utah).
(§2) The dose response of cell line to different drugs was determined by MTT assay as described previously (Conze et al., Cancer Res 61, 8851-8858, 2001; Sladowski et al., J Immunol Methods 157, 203-207, 1993). Different concentrations of drug were used, ranging from 0-100 μM for Doxorubicin, 0-30 μM for Paclitaxel and 0-30 μM for 5-Flurouracil. LD50 values were calculated by non-linear regression and plotted graphically as percentage of viable cells.
On the technique in general: Tetrazolium dyes change colour on reduction, which living cells bring about.

The test system of another test is c-Jun. Nature of the test: c-Jun expression by Western blot in MCF7 cells treated with proteasome inhibitor. Particulars: MG132 5 μM, 4 h. On the procedure: Whole cell extracts were prepared in lysis buffer as previously described (Pedraza-Alva et al., J Biol Chem 276, 729-737, 2001). 40-100 μg of proteins were separated by electrophoresis and transferred on to a nitrocellulose membrane (Conze et al., Cancer Res 61, 8851-8858, 2001). Primary antibodies for Western blotting include anti-ABCB1 (JSB-1 clone) from (ALEXIS corporation Switzerland), rabbit polyclonal anti-MCJ, anti-HA, anti-c-Jun, from (Cell Signaling Technology, Inc) anti-actin and the secondary antibodies goat anti-mouse HRP, goat anti-rabbit HRP and donkey anti-goat HRP Ab from (Santa Cruz Biotechnology). LUMIGLO® chemiluminescent substrate system (KPL, Maryland) was used to visualize the proteins. Levels of actin were determined as loading control.
It was determined whether the increased c-Jun DNA binding in siMCJ cells could be due to an upregulation of c-Jun protein levels. The levels of c-Jun by Western blot analysis were examined using whole cell lysates. Very low levels of c-Jun were detected in MCF7 cells, but high levels were present in MCF7/siMCJ cells (FIG. 8D). It has been previously reported that c-Jun levels can be regulated by ubiquitination and proteasome mediated degradation (Treier et al., Cell 78, 787-798, 1994). […]

Test [2] deals with MCF7/ADR cells. Briefly: Cell viability assay (MTT assay). On the procedure:
as §1, §2

The subject of test [3] is MCF7/siMCJ-1B cells. Nature of the test: Cell viability assay (MTT assay). On the procedure:
as §1, §2

For test [4], the system named is MCF7/siMCJ-3B cells. Nature of the test: Cell viability assay (MTT assay). On the procedure: as §1, §2
The test system of test [5] is MCF7/ADR cells. Briefly: Analysis of drug internalization (flow cytometry, confocal microscopy). Particulars: 0.3 and 3 μM, 3 h. On the procedure: (§3) MCF7, MCF7/ADR, MCF7/siMCJ-1B and MCF7/siMCJ-3B cells were treated with doxorubicin (0.3 or 3 μM) for 3 h at 37° C. Negative controls had no drug added. Cells were washed 3 times with PBS and trypsinised and doxorubicin fluorescence was examined by flow cytometry using a LSRII flow cytometer (BD Biosciences, Mass.). FLP3, 695/40 nm filter with 685 nm long pass was used to measure doxorubicin fluorescence. For MCF7/siMCJ cells, EGFP was detected in FLP1, 530/30 nm band-pass with 505 nm long pass. No overlap of two fluorescences could be detected. Confocal microscopy: MCF7, MCF7/ADR, MCF7/siMCJ-1B and -3B (3×10^4) cells were seeded on BD Biocoat coverslips (BD Biosciences, Bedford, Mass.) and treated with doxorubicin in the presence or absence of veraparnil (10 μM). After different periods of time (0, 2, 3 h) cells were washed with PBS and fixed in 3.7% paraformaldehyde to be examined by confocal microscopy. Since both, EGFP (present in MCF7/siMCJ cells) and doxorubicin are excited by 488 nm, the conventional multi track type of analysis could not be used. Instead, the Lambda Mode analysis in the Zeiss confocal microscope (Zeiss LSM 510 META Confocal Laser Scanning Imaging System, Carl Ziess Microimaging Inc, Thronwood, N.Y.) was used that allows a precise analysis of the emission spectrum for each fluorochrome (Chen and Simon, J Cell Biol 148, 863-870, 2000). The cells were excited at 488 nm and emission peaks were readily separated by this methodology with EGFP emission at 500 nm and doxorubicin at 600 nm (FIG. 10).
A general note: In flow cytometry, cells or beads pass a laser one at a time.

For test [6], the system named is MCF7/siMCJ-1B cells. The description is as above. Particulars: for effect on intracellular accumulation of doxorubicin: verapamil 10 μM. On the procedure:
as §3

Test [7] deals with MCF7 cells. Described as above. On the procedure:
as §3

Test [8] relates to MCF7/siMCJ-3B cells. The description is as above. Particulars: 3 h; for intracellular accumulation of doxorubicin: flow cytometry. The protocol:
as §3

The next test concerns MCJ. Nature of the test: MCJ mRNA expression by RT-PCR in MCF7 cells cultured with IL-6. Particulars: IL-6 50 ng/ml, 8 days (one week), RT-PCR and real-time RT-PCR. The source says:
Total RNA was isolated using ULTRASPEC® RNA isolation systems, as recommended by the manufacturer (Biotecx Laboratories, Inc, Houston, Tex.). The first strand cDNA was obtained by reverse transcription as described previously (Conze et al., Cancer Res 61, 8851-8858, 2001). cDNA was used to detect human […], HPRT, MCJ, ABCG2 and ABCC1 expression by conventional PCR or real-time RT-PCR. Previously described primers were used for the conventional RT-PCR amplification of ABCB1 (Noonan et al., Proc Natl Acad Sci USA 87, 7160-7164, 1990), HPRT (Conze et al., Cancer Res 61, 8851-8858, 2001), ABCC1 (Harbottle et al., Int J Cancer 92, 777-783, 2001), ABCG2 (Doyle and Ross, Oncogene 22, 7340-7358, 2003) and MCJ (Shridhar et al., Cancer Res 61, 4258-4265, 2001). For the real-time RT-PCR analysis, by TAQMAN® system (Applied Biosystems), an Assay on Demand Kit for human HPRT and ABCB1 (Sigma, Genosys) was used. For the detection of MCJ by real time RT-PCR, we used the following probe and primer set were used (Sigma, Genosys) (probe 5′-[…]-3; (SEQ ID NO:22) sense primer 5′-CAGAAAATGA GTAGGCGAGAAGC-3′ (SEQ ID NO:23) and anti-sense primer 5′-[…]-3′ (SEQ ID NO:24). HPRT was used as an endogenous control to normalize the mRNA values in each sample. The relative values were determined by the comparative CT analysis method. […]

Peptide text beside a SMILES is read from it. * marks the point of attachment. Cbz = O=C(OCc1ccccc1)*

Turning to `O=c1[nH]cc(F)c(=O)[nH]1` [5-FU, 5-fluorouracil], the “dose-response compared between cell lines (MTT assay)” value in the test with MCF7 cells [1] (MCF7, MCF7/ADR, MCF7/siMCJ-1B and -3B cells) is “comparable”.

As for `CC(C)C[C@@H](C=O)NC(=O)[C@H](CC(C)C)NC(=O)[C@H](CC(C)C)NC(=O)OCc1ccccc1` [MG132] (Cbz-Leu-Leu-Leu-aldehyde), the “c-Jun levels compared with untreated MCF7 cells” value with c-Jun is given as “Increased levels”.

On to `COc1cccc2c1C(=O)c1c(O)c3c(c(O)c1C2=O)C[C@@](O)(C(=O)CO)C[C@@H]3O[C@H]1C[C@H](N)[C@H](O)[C@H](C)O1` [doxorubicin], for which the “response of cells to drug (percent viability, MTT assay)” value is “highly resistant” with MCF7/ADR cells [2], “significantly more resistant” with MCF7/siMCJ-1B cells [3], “highly sensitive” with MCF7 cells [1] and “significantly more resistant” with MCF7/siMCJ-3B cells [4]. The “intracellular accumulation of doxorubicin” value in the test on MCF7/ADR cells [5] is listed as “no doxorubicin was observed”; in the test with MCF7/siMCJ-1B cells [6] (flow cytometry, 0.3 μM, 3 h), “no intracellular accumulation”; in the test with MCF7/siMCJ-1B cells [6] (flow cytometry, 3 μM, 3 h) it was “very low intracellular levels”; in the test on MCF7 cells [7] (flow cytometry, 0.3 and 3 μM, 3 h), “High levels”; with MCF7/siMCJ-3B cells [8] (0.3 μM), “no intracellular accumulation”; with MCF7/siMCJ-3B cells [8] (3 μM), “very low intracellular levels”. The “doxorubicin fluorescence (intracellular accumulation)” value in the test on MCF7/siMCJ-1B cells [6] (confocal microscopy, 3 h) is “no doxorubicin fluorescence was observed”; with MCF7 cells [7] (confocal microscopy, 1, 2 or 3 h), “maximum level of intracellular accumulation was reached after 3 h”; in the test on MCF7/siMCJ-3B cells [8] (confocal microscopy), “no doxorubicin fluorescence was observed”.

With `CC(=O)O[C@H]1C(=O)[C@@]2(C)[C@H]([C@H](OC(=O)c3ccccc3)[C@]3(O)C[C@H](OC(=O)[C@H](O)[C@@H](NC(=O)c4ccccc4)c4ccccc4)C(C)=C1C3(C)C)[C@]1(OC(C)=O)CO[C@@H]1C[C@@H]2O` [paclitaxel], the “response of cells to drug (percent viability, MTT assay)” value in the test with MCF7/siMCJ-1B cells [3] is reported as “highly resistant”; in the test on MCF7 cells [1], “highly sensitive”; in the test on MCF7/siMCJ-3B cells [4] it was “highly resistant”.

`COc1ccc(CCN(C)CCCC(C#N)(c2ccc(OC)c(OC)c2)C(C)C)cc1OC` (stereo not shown) [verapamil]: the “effect on intracellular accumulation of doxorubicin” value in the test with MCF7/siMCJ-1B cells [6] (confocal microscopy, doxorubicin 3 h) is reported as “clear intracellular accumulation was observed”; in the test with MCF7/siMCJ-1B cells [6] (flow cytometry, doxorubicin 3 μM, 3 h), “allowed the intracellular accumulation of doxorubicin”; in the test with MCF7 cells [7] (flow cytometry, verapamil 10 μM, doxorubicin 3 μM, 3 h) it was “no effect”.

As to “IL-6: exogenous IL-6 added to MCF7 cell culture”, the “MCJ mRNA levels compared with untreated MCF7 cells” value in the test on MCJ is listed as “reduced levels”.

The values above are taken from patent US8354237B2, “Anti-methylation-controlled j protein antibodies and uses thereof” (University of Vermont and State Agriculture College, priority 2007, dated 2013).
